Source: patent US10274490B2, “Magnetic labeling of bacteria” (The General Hospital Corporation, priority 2012, dated 2019)
Each block holds one molecule with its values, some of them ahead of it.

Legend:
[1] = Molar extinction coefficient; assay type: physicochemical; conditions: 592 nm
[2] = test system: S. aureus (Gram-positive); assay: Gram staining, bright field microscopy; assay type: cell-based, Staphylococcus aureus; conditions: 1 mM Crystal Violet-TCO 3 min, iodine, 95% ethanol, Safranin counterstain
Procedure: Bacterial cells were smeared onto microscopic slides, and stained with standard crystal violet (20 mM) or CV-TCO (1 mM) in 20% ethanol solution containing 8 mg/ml ammonium oxalate for 3 min. After washing with deionized water, slides were treated with Gram Iodine (BD Biosciences), decolorized with 95% ethanol solution, and counterstained with Gram safranin (BD Biosciences). Slides were observed using a bright field light microscope.
To test the efficacy of Crystal Violet-TCO as a staining agent for Gram-positive bacteria, three representative samples were prepared: Staphylococcus aureus (S. aureus; Gram-positive), Escherichia coli (E. coli; Gram-negative), and the mixture of both bacterial species. Bacterial smears on glass slides were stained with a solution of Crystal Violet-TCO (1 mM) or Crystal Violet for 3 min., followed by treatment with Gram's iodine solution for one minute, decolorization with 95% ethanol, and counterstaining with red Safranin solution.

[3] = test system: S. aureus (Gram-positive); assay: Absorbance at 595 nm / UV-visible spectrometry of stained bacteria; assay type: cell-based, Staphylococcus aureus; conditions: E. coli (G−) as comparison
Procedure: (§1) Bacterial cells in media were first washed with phosphate buffered saline solution (PBS). For μNMR measurements, absorbance measurements, confocal microscopy, and transmission electron microscopy (TEM), the bacteria (10^8 in 100 μl) were stained with 200 μM CV-TCO in 20% ethanol solution containing 8 mg/ml ammonium oxalate for 5 min. at room temperature, and washed with PBS. Then the bacteria were treated with Gram Iodine solution for 1 min. and decolorized with 95% ethanol solution. For μNMR and confocal microscopy, bacteria were incubated with 50 μg/ml MFNP-Tz in PBS for 20 min. at room temperature, and washed twice with PBS. For confocal microscopy, labeled bacteria were mounted on microscopic slides with Vectashield containing propium iodide (Vector Laboratories), and imaged. For TEM, the stained and decolorized bacteria were incubated with 50 μg/ml GNP-Tz in PBS for 1 h, washed with PBS, and dehydrated with graded ethanol series before applying onto a carbon grid (Ted Pella).

Gram-positive species = assay: μNMR cellular relaxivity of bacteria stained with Crystal Violet-TCO and labeled with MFNP-Tz; assay type: cell-based; conditions: panel of bacterial species
Procedure: Bacterial cells in media were first washed with phosphate buffered saline solution (PBS). For μNMR measurements, absorbance measurements, confocal microscopy, and transmission electron microscopy (TEM), the bacteria (10^8 in 100 μl) were stained with 200 μM CV-TCO in 20% ethanol solution containing 8 mg/ml ammonium oxalate for 5 min. at room temperature, and washed with PBS. Then the bacteria were treated with Gram Iodine solution for 1 min. and decolorized with 95% ethanol solution. For μNMR and confocal microscopy, bacteria were incubated with 50 μg/ml MFNP-Tz in PBS for 20 min. at room temperature, and washed twice with PBS. […]
To test whether bacteria labelled with Crystal Violet-TCO could be magnetically labeled via cycloaddition to the TCO group, bacteria stained with Crystal Violet-TCO were incubated with magnetofluorescent nanoparticles modified with tetrazine (MFNP-Tz). […] The T2 relaxation values of samples were measured using a miniaturized μNMR system. For comparative analyses, the absorption (at 595 nm) of the same samples was also measured. Cellular relaxivity (r2) was obtained by normalizing the measured 1/T2 values with bacterial concentration, and the r2 differences (Δr2) between targeted and control samples were calculated. […]

S. aureus [4] = assay: μNMR sensitivity of the assay, serially diluted bacterial samples; assay type: cell-based, Staphylococcus aureus; conditions: Crystal Violet-TCO and MFNP-Tz
Procedure: as §1
To measure the sensitivity of the assay, measurements with serially diluted bacterial samples were performed and established a detection limit of about 4,000 bacteria with the experimental set-up used. […] Limit of detection was ˜4000 CFU.

S. aureus [5] = assay: Confocal microscopy (MFNP-Tz) and TEM (GNP-Tz) of Crystal Violet-TCO stained bacteria; assay type: cell-based, Staphylococcus aureus
Procedure: as §1
The left, middle, and right panels show images of the red channel, green channel, and a merged image of the red and green channels, respectively (Red: propidium iodide for nuclear staining; Green: MNFP-Tz staining; Scale bar=10 μm).
Gold nanoparticles were used instead of magnetic nanoparticles to obtain higher contrast.

E. coli (Gram-negative) = assay: Confocal microscopy control experiment; assay type: cell-based, Escherichia coli; conditions: Crystal Violet-TCO stained, decolorized
Procedure: as §1
The green channel (left) indicates MNFP-Tz, and the red channel (right) indicates propidium iodide. (Scale bar=5 μm).

[6] = test system: Gram-positive and Gram-negative bacteria; assay: μNMR detection before and after decolorization; assay type: cell-based
Procedure: as §1
The magnetic labeling detection strategy using Crystal Violet-TCO can be applied to detect both Gram-positive and Gram-negative bacteria. A modified protocol was adopted in which staining was performed without the decolorization process, which results in labeling both Gram-positive and Grain-negative bacteria, since the Gram-negative bacteria also retain the Crystal Violet-TCO. […]

Nocardia Farcinica = assay: Bioorthogonal labeling with Trehalose-TCO and Oregon Green-Tz, cell fluorescence microscopy; assay type: cell-based
Procedure: Nocardia Farcinica bacteria (ATCC 3308) at an OD600 of 0.8 in growth medium (0.1 mL) was added 100 μM Trehalose-TCO, Trehalose-fluorescein or DMSO (as a control) in growth media (1% DMSO). Bacteria were incubated at 37° C. with shaking for 16 h. Bacteria were then centrifuged (7 min., 8000 rpm) and washed (2×100 μL PBS solution containing 2% fetal bovine serum (FBS) and 1 mg/mL bovine serum albumin (BSA) PBS-F).
Bacteria treated with Trehalose-TCO were incubated with 50 μg/mL MFNP-Tz MNFP-Tz or 10 μM Oregon Green-Tz for 20 min. in PBS-F. Bacteria were then centrifuged (7 min., 8000 rpm) and washed (2×100 μL PBS-F). Bacteria were then fixed with 10% PFA in PBS (100 μL) for 20 min., centrifuged and resuspended in 10 μL PBS. 3 μL were spread out on a 96 wells plates (Nunc, Cat No 137103 (Roskilde, Denmark, pre-wet with PBS-F). Bacteria were dried out in an incubator 37 C for 30 min. then mounting media containing […] was added to samples. Imaging was done on a DeltaVision microscope (Applied Precision Instruments) at 60×.

Gram-positive bacteria [7] = assay: Fluorescence spectrometry of bacteria labeled with daptomycin-TCO and MFNP-Tz; assay type: cell-based; conditions: daptomycin-TCO at various concentrations, then MFNP-Tz
Procedure: (§2) For two-step labeling using Daptomycin-TCO, the drug conjugates were incubated in buffer solution containing 5 mM 4-(2-hydroxyethyl)-1-piperazineethanesulfonic acid (HEPES), 5 mM CaCl2, 2% FBS, and 1 mg/ml BSA at room temperature for 30 min. After washing twice with PBS-F, bacterial cells were incubated with 50 μg/ml MFNP-Tz in PBS-F for 20 min. at room temperature.
For fluorescence spectrometry, μNMR measurements, and flow cytometry, the cells were fixed in 10% paraformaldehyde (PFA) for 30 min., and then exchanged into PBS solution. Fluorescence measurements were taken using the Safire2 microplate reader (TECAN, Mannedorf, Switzerland). Increased relative fluorescence intensity (% RFU) values were calculated as 100×(Itarget−Inon)/Inon, where Itarget and Inon are intensity values of targeted and non-targeted bacteria, respectively. Flow cytometry was performed using LSRII (BD Biosciences). All labeling experiments and measurements were performed at least 3 times to confirm the reproducibility and robustness of the method.
(§3) Daptomycin-TCO was used to magnetically label bacteria using methods similar to those described in Example 1.

Gram-positive bacteria [8] = assay: Magnetic resonance detection of bacteria labeled with daptomycin-TCO and MFNP-Tz; assay type: cell-based; conditions: daptomycin-TCO then MFNP-Tz
Procedure: as §2
All μNMR measurements were performed using the portable NMR system recently developed for point-of-care operations as described by Issadore, et al. Lab Chip 2011, 11, 2282-87. The polarizing magnetic field was ˜0.5 T. Transverse relaxation times were measured on 1-2 μL sample volumes, using Carry-Purcell-Meiboom-Gill pulse sequences with the following parameters: echo time, 3 ms; repetition time, 4 s; number of 180° pulses per scan, 900; number of scans, 7.
as §3

Gram-positive bacteria [9] = assay: Competitive inhibition of vancomycin-TCO labeling by unmodified vancomycin; conditions: 1-200 μM unmodified vancomycin added to 20 μM vancomycin-TCO; fluorescence and magnetic resonance; all Gram-positive bacteria; read-out: inhibition binding constant (Ki)
Procedure: For two-step labeling, the washed cells were incubated with 1-20 μM vancomycin TCO in PBS-F at room temperature for 30 min. For competition studies, 1-200 μM unmodified vancomycin was added to 20 μM vancomycin-TCO.
To further characterize the binding properties of vancomycin-TCO, competitive inhibition studies were performed in which unmodified vancomycin was introduced together with vancomycin-TCO, before reacting with MFNP-Tz.
FIGS. 8A and 8B show the results of competition studies of vancomycin-TCO using both fluorescence (FIG. 8A) and magnetic resonance (FIG. 8B) measurements. […] The inhibition binding constant (Ki) was about 6 μM for all Gram-positive bacteria, a value which was similar to that of vancomycin-TCO.

Structure (SMILES): CC[N+](CCNC(=O)OC1CC/C=C/CCC1)=C1C=CC(=C(c2ccc(N(C)C)cc2)c2ccc(N(C)C)cc2)C=C1 (centres unmarked) [Crystal Violet-TCO, (E)-N-(4-(bis(4-(dimethylamino)phenyl)methylene)cyclohexa-2,5-dien-1-ylidene)-2-(((cyclooct-4-en-1-yloxy)carbonyl)amino)-N-ethylethanaminium chloride]
- molar extinction coefficient ε592 [1]: 133013 L/mol/cm
- colour after Gram staining and decolorization [2]: remained purple
- UV absorbance of stained bacteria [3]: intense absorption at 595 nm
- cellular relaxivity of Gram-positive species (Gram-positive species): significantly higher cellular relaxivity values when compared to Gram-negative bacteria
- detection limit (S. aureus [4]): about 4,000 bacteria
- Limit of detection (S. aureus [4]; ΔR2): ~4000 CFU
- transmission electron microscopy observation (S. aureus [5]; CV-TCO then GNP-Tz): Gold nanoparticles were found distributed throughout the bacterial surface
- confocal microscopy observation (S. aureus [5]; Crystal Violet-TCO then MFNP-Tz): uniform and high fluorescence signals in the bacterial cell wall
- confocal microscopy MFNP-Tz signal (E. coli (Gram-negative)): absence of MFNP-Tz signal
- μNMR detection ([6]; after decolorization): only Gram-positive species retained their signals
- μNMR detection ([6]; before decolorization): both Gram-positive and negative bacteria could be magnetically labeled and detected

Structure (SMILES): C[C@]1(O[C@H]2O[C@H](CO)C(O)C(O)C2NC(=O)OC2CC/C=C/CCC2)OC(CO)[C@@H](O)C(O)C1O (stereo partly drawn) [Trehalose-TCO, 1-deoxy-α-D-gluco-hept-2-ulopyranosyl-(2→1)-2-deoxy-2-((E)-cyclooct-4-en-1-yl carbamate)-α-D-glucopyranoside]
- kinetics of incorporation (Nocardia Farcinica; 0-16 h, subsequent labeling with Oregon Green-Tz): gradual increase in the extent of labeling
- cell fluorescence (Nocardia Farcinica; 100 μM Trehalose-TCO 16 h, then 10 μM Oregon Green-Tz): Bright green fluorescence of the cells is observed

- molar extinction coefficient ε592 [1]: 89146 L/mol/cm
Structure (SMILES): CN(C)c1ccc(C(=C2C=CC(=[N+](C)C)C=C2)c2ccc(N(C)C)cc2)cc1 [crystal violet, reference compound]

Structure (SMILES): CCCCCCCCCC(=O)N[C@@H](Cc1c[nH]c2ccccc12)C(=O)N[C@@H](CC(N)=O)C(=O)N[C@@H](CC(=O)O)C(=O)N[C@@H]1C(=O)NCC(=O)N[C@@H](CCCNC(=O)OC2CC/C=C/CCC2)C(=O)N[C@@H](CC(=O)O)C(=O)N[C@H](C)C(=O)N[C@@H](CC(=O)O)C(=O)NCC(=O)N[C@H](CO)C(=O)N[C@@H]([C@@H](C)CC(=O)O)C(=O)N[C@@H](CC(=O)c2ccccc2N)C(=O)O[C@@H]1C (some centres unmarked) [daptomycin-TCO]
- increased relative fluorescence intensities (Gram-positive bacteria [7]): up to 220%
- cellular relaxivity (Gram-positive bacteria [8]): 1.32 s^−1[CFU/μL]^−1

Structure (SMILES): CN[C@H](CC(C)C)C(=O)N[C@H]1C(=O)N[C@@H](CC(N)=O)C(=O)N[C@H]2C(=O)N[C@H]3C(=O)N[C@H](C(=O)N[C@H](C(=O)O)c4cc(O)cc(O)c4-c4cc3ccc4O)[C@H](O)c3ccc(c(Cl)c3)Oc3cc2cc(c3O[C@@H]2O[C@H](CO)[C@@H](O)[C@H](O)[C@H]2O[C@H]2C[C@](C)(N)[C@H](O)[C@H](C)O2)Oc2ccc(cc2Cl)[C@H]1O [vancomycin]
- Ki (Gram-positive bacteria [9]): ~6 µM
